Assay results from patent publication US20250230193A1, “CYCLIC COMPOUND HAVING SELECTIVE KRAS INHIBITORY EFFECT ON HRAS AND NRAS” (CHUGAI SEIYAKU KABUSHIKI KAISHA, priority 2022, published 2025).
Where a SMILES comes first, the peptide text is derived from it. Bridges are numbered along the chain shown (N, C = ends). [ ]: non-standard residue; d: D form. The star is where a group is joined. hPhe(3-Cl-4-CF3) = N[C@@H](CCc1ccc(C(F)(F)F)c(Cl)c1)C(=O)O; NMePhe(4-F) = CN[C@@H](Cc1ccc(F)cc1)C(=O)O; NMeGly(cPent) = CN[C@H](C(=O)O)C1CCCC1; NMeD = CN[C@@H](CC(=O)O)C(=O)O; NMeL = CN[C@@H](CC(C)C)C(=O)O; Morpholide = C1CN(*)CCO1; NMeA = CN[C@@H](C)C(=O)O; Ac5c = NC1(C(=O)O)CCCC1; Aze = O=C(O)[C@@H]1CCN1; Sar = CNCC(=O)O

Assays:
[1] = biological target: GDP-bound NRAS wild-type protein (Homo sapiens, UniProt P01111); assay: Binding to NRAS by surface plasmon resonance (SPR), Single Cycle Kinetics; details: SPR
Sequence of GDP-bound NRAS wild-type protein (P01111 whole entry): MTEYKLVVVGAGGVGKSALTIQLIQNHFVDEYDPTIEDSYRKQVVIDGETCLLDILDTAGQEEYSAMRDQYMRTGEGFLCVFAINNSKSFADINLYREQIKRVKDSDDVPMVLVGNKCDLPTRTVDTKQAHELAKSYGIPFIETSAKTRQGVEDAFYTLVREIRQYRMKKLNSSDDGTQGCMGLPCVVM

[2] = biological target: GDP-bound HRAS wild-type protein (Homo sapiens, UniProt P01112); assay: Binding to HRAS by surface plasmon resonance (SPR), Single Cycle Kinetics; details: SPR
Sequence of GDP-bound HRAS wild-type protein (P01112 whole entry): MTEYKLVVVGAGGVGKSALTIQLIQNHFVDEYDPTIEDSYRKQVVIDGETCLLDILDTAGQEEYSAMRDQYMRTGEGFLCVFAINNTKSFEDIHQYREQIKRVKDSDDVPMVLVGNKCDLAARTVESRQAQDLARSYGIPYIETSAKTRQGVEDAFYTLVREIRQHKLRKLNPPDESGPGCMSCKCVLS

[3] = KD ratio, GDP-bound NRAS wild-type vs GDP-bound KRAS wild-type
[4] = KD ratio, GDP-bound HRAS wild-type vs GDP-bound KRAS wild-type

SMILES: CC[C@H](C)[C@@H]1NC(=O)[C@H](CC(C)C)N(C)C(=O)C[C@@H](C(=O)N2CCOCC2)N(C)C(=O)[C@H](C2CCCC2)N(C)C(=O)C(C)(C)NC(=O)[C@@H]2CCCN2C(=O)[C@H](CCc2cc(F)c(C(F)(F)F)c(F)c2)NC(=O)CN(C)C(=O)[C@H](Cc2ccc(C(F)(F)F)cc2)N2CCCCC[C@@H](C2=O)N(C)C(=O)CN(C)C1=O [PP0503]
- NRAS/KRAS (ratio of KD value with respect to GDP-bound NRAS wild-type protein to KD value with respect to KRAS) ([1]; KD ratio NRAS/KRAS): A (a compound having 10 or more and less than 20 is denoted as A)
- HRAS/KRAS (ratio of KD value with respect to GDP-bound HRAS wild-type protein to KD value with respect to KRAS) ([2]; KD ratio HRAS/KRAS): B (a compound having 3 or more and less than 10 is denoted as B)

SMILES: CC[C@H](C)[C@@H]1NC(=O)[C@H](CC(C)C)N(C)C(=O)C[C@@H](C(=O)N2CCOCC2)N(C)C(=O)[C@H](C2CCCC2)N(C)C(=O)C2(CCCC2)NC(=O)[C@@H]2CCCN2C(=O)[C@H](CCc2ccc(C(F)(F)F)c(Cl)c2)NC(=O)CN(C)C(=O)[C@H](Cc2ccc(F)cc2)N(C)C(=O)[C@@H]2CCN2C(=O)[C@H](C)N(C)C1=O [PP0217] ([NMeL]I[NMeA][Aze][NMePhe(4-F)][Sar][hPhe(3-Cl-4-CF3)]P[Ac5c][NMeGly(cPent)][NMeD]-Morpholide; lactam N-11)
- NRAS/KRAS (ratio of KD for GDP-bound NRAS wild-type to KD for KRAS) ([1]; KD ratio NRAS/KRAS): C (A compound having a KD ratio of 0.1 or more and less than 3 is denoted as C)
- HRAS/KRAS (ratio of KD for GDP-bound HRAS wild-type to KD for KRAS) ([2]; KD ratio HRAS/KRAS): C (A compound having a KD ratio of 0.1 or more and less than 3 is denoted as C)

SMILES: CC[C@H](C)[C@@H]1NC(=O)[C@H](C)N(C)C(=O)C[C@@H](C(=O)N(C)C)N(C)C(=O)[C@H](C2CCCC2)N(C)C(=O)C2(CCC2)NC(=O)[C@@H]2CC(F)(F)CN2C(=O)[C@H](CCc2cc(F)c(C(F)(F)F)c(F)c2)NC(=O)CN(C)C(=O)[C@H](Cc2ccc(C(F)(F)F)cc2)N2CCCC[C@@H](C2=O)N(C)C(=O)CN(C)C1=O [PP0584]
- NRAS/KRAS (ratio of KD value with respect to GDP-bound NRAS wild-type protein to KD value with respect to KRAS) ([1]; KD ratio NRAS/KRAS): C (A compound having a KD ratio of 0.1 or more and less than 3 is denoted as C)
- HRAS/KRAS (ratio of KD value with respect to GDP-bound HRAS wild-type protein to KD value with respect to KRAS) ([2]; KD ratio HRAS/KRAS): C (A compound having a KD ratio of 0.1 or more and less than 3 is denoted as C)

SMILES: CCO[C@@H]1C[C@H]2C(=O)NC3(CCC3)C(=O)N(C)[C@@H](C3CCCC3)C(=O)N(C)[C@H](C(=O)N(C)C)CC(=O)N(C)[C@@H](CC(C)C)C(=O)N[C@@H]([C@@H](C)CC)C(=O)N(C)CC(=O)N(C)[C@H]3CC(C)=CCN(C3=O)[C@@H](Cc3ccc(C(F)(F)F)cc3)C(=O)N(C)CC(=O)N[C@@H](CCc3cc(F)c(C(F)(F)F)c(F)c3)C(=O)N2C1 [PP1032]
- NRAS/KRAS (ratio of KD value with respect to NRAS to KD value with respect to KRAS) [1, 3]: C (A compound having a KD ratio of 0.1 or more and less than 3 is denoted as C)
- HRAS/KRAS (ratio of KD value with respect to HRAS to KD value with respect to KRAS) [2, 4]: C (A compound having a KD ratio of 0.1 or more and less than 3 is denoted as C)

SMILES: CCC[C@H]1C(=O)N[C@@H](C2CCCC2)C(=O)N(C)CC(=O)N(C)[C@H]2C/C=C\CCN(C2=O)[C@@H](Cc2ccc(C)cc2)C(=O)N(C)CC(=O)N[C@@H](CCc2cc(F)c(C(F)(F)F)c(F)c2)C(=O)N2C[C@H](OCC)C[C@H]2C(=O)NC2(CC(C)(C)C2)C(=O)N(C)[C@@H](C2CCCC2)C(=O)N(C)[C@H](C(=O)N(C)C)CC(=O)N1C [PP2988]
- NRAS/KRAS (ratio of KD value with respect to GDP-bound NRAS wild-type protein to KD value with respect to KRAS) ([1]; KD ratio NRAS/KRAS, GDP-bound wild-type proteins): B (a compound having 3 or more and less than 10 is denoted as B)
- HRAS/KRAS (ratio of KD value with respect to GDP-bound HRAS wild-type protein to KD value with respect to KRAS) ([2]; KD ratio HRAS/KRAS, GDP-bound wild-type proteins): B (a compound having 3 or more and less than 10 is denoted as B)

SMILES: CCC[C@H]1C(=O)N[C@@H]([C@@H](C)CC)C(=O)N(C)CC(=O)N(C)[C@H]2C/C=C\CCN(C2=O)[C@@H](Cc2ccc(C(F)(F)F)cc2)C(=O)N(C)CC(=O)N[C@@H](CCc2cc(F)c(C(F)(F)F)c(F)c2)C(=O)N2C[C@H](OCC)C[C@H]2C(=O)NC2(CCC2)C(=O)N(C)[C@@H](C2CCCC2)C(=O)N(C)[C@H](C(=O)N(C)CCC)CC(=O)N1C [PP1389]
- NRAS/KRAS (ratio of KD value for GDP-bound NRAS wild-type protein to KD value for KRAS) ([1]; KD ratio class): AA (a compound having 20 or more is denoted as AA)
- HRAS/KRAS (ratio of KD value for GDP-bound HRAS wild-type protein to KD value for KRAS) ([2]; KD ratio class): A (a compound having 10 or more and less than 20 is denoted as A)

SMILES: CCC[C@H]1C(=O)N[C@@H]([C@@H](C)CC)C(=O)N(C)CC(=O)N(C)[C@H]2C/C=C\CCN(C2=O)[C@@H](Cc2ccc(C)cc2)C(=O)N(C)CC(=O)N[C@@H](CCc2ccc(C(F)(F)F)c(OC)c2)C(=O)N2C[C@@H](C)C[C@H]2C(=O)NC2(CC(C)(C)C2)C(=O)N(C)[C@@H](C2CCCC2)C(=O)N(C)[C@H](C(=O)N(C)C)CC(=O)N1C [PP1888]
- NRAS/KRAS (ratio of KD value for NRAS to KD value for KRAS) [1, 3]: A (a compound having 10 or more and less than 20 is denoted as A)
- HRAS/KRAS (ratio of KD value for HRAS to KD value for KRAS) [2, 4]: B (a compound having 3 or more and less than 10 is denoted as B)
